This is an account of results in paper PMC9697446 (International Journal of Molecular Sciences, 2022).

Molecules are shown by their SMILES. Several values for one entry are separate records, joined by “and”; a condition that tells them apart may be missing. Equal entries are not always repeated.

Experiment [1] in a line: ABTS radical cation scavenging assay. Conditions: 1 h incubation, means ± SEM (n = 3); for IC50: 50% reduction of ABTS radical; for ABTS Scavenging Activity, TEAC Value: Trolox equivalent antioxidant capacity. As to the method:
The ABTS assay is based on the direct binding of a model ABTS radical cation (2,2′-azino-bis-(3-ethylbenzothiazoline-6-sulfonate), ABTS^•+) by antioxidants. The measurements were performed as previously described in detail.
The radical scavenging activity was expressed as TEAC values (Trolox equivalent antioxidant capacity) and determined as the ratio between the slopes obtained from the linear correlation of the ABTS radical absorbance with the concentrations of the test compounds and Trolox.
The radical scavenging activity of the compounds was assessed using an ABTS radical decolorization assay. The procedure followed the reported protocol with minor modifications. ABTS (2,2ʹ-azino-bis-(3-ethylbenzothiazoline-6-sulfonic acid) diammonium salt) was purchased from TCI (Tokyo, Japan), while potassium persulfate (di-potassium peroxodisulfate), Trolox (6-hydroxy-2,5,7,8-tetramethylchroman-2-carboxylic acid), catechol, and DMSO were received from Sigma-Aldrich Chemical Co. (St. Louis, MO, USA). The ethanol was HPLC grade. Aqueous solutions were prepared using deionized water.
Trolox was used as the standard reference compound. Catechol was used as the positive control. All test and reference compounds were dissolved in DMSO. The final concentration of DMSO in the reaction mixture was 4% (v/v).
The solution of ABTS radical cation (ABTS^•+) was produced by mixing a 7 mM ABTS stock solution with a 2.45 mM aqueous solution of potassium persulfate in equal quantities and allowing them to react for 12–16 h at room temperature in the dark. At the time of activity determination, the ABTS^•+ solution was diluted with ethanol to adjust it to an absorbance value of about 0.80 ± 0.05 at 734 nm. A fresh working solution of ABTS^•+ was prepared for each assay.
The radical scavenging capacity of the compounds was analyzed by mixing 10 μL of test compound with 240 μL of ABTS^•+ working solution. The reduction in absorbance was measured spectrophotometrically at 734 nm using an xMark microplate UV/VIS spectrophotometer (Bio-Rad, Hercules, CA, USA). The reaction was monitored for an hour at 10 min intervals. Data were given for 1 h of incubation of compounds with ABTS^•+. EtOH blanks were run in each assay. The results were obtained from three replicates of each sample and three independent experiments.
The antioxidant capacity as a Trolox equivalent (TEAC values) was determined as the ratio between the slopes obtained from the linear correlation of concentrations of test compounds and Trolox with absorbance of ABTS radical.

Experiment [2] deals with Fe3+-induced LP in rat brain homogenate. Description: Fe3+-induced lipid peroxidation in rat brain homogenate. Type of experiment: biochemical. Particulars: for IC50: LP induced by 0.5 mM Fe3+ in rat brain homogenate, mean ± SD, read-out: Inhibition of LP IC50; for Pro-oxidant activity in rat brain homogenate: 10 nM to 30 µM. As to the method: The influence of MB and its conjugates with indole derivatives on Fe^3+-induced lipid peroxidation (LP) in rat brain homogenate was studied over a broad concentration range (from 10 nM to 30 µM).
On the day of the experiment, adult Wistar male rats that fasted overnight were euthanized in a CO2 chamber, followed by decapitation. The procedure was in compliance with the Guidelines for Animal Experiments at the Institute of Physiologically Active Compounds of the Russian Academy of Sciences. The brains were rapidly removed and homogenized in 0.12 M HEPES/0.15M NaCl, pH 7.4 buffer (HBS) ([…]) and used immediately for the assay.
The protein concentrations in rat brain homogenate (RBH) were determined by the biuret assay using bovine serum albumin as the standard.
The effect of the compounds on LP of the RBH was studied at […] in 0.25 mL of RBH (2 mg of protein·mL^−1) in the presence of the compounds or the vehicle (DMSO). Lipid peroxidation was induced by Fe^3+ (0.5 mM Fe(NH4)(SO4)2) as an oxidant.
The reaction mixture was incubated for 30 min at 37 °C, then quenched by adding 0.4 mL of quench medium containing 250 mM HCl and 15% (w/v) trichloroacetic acid. The samples were then centrifuged for 10 min at 10,000× g, and 75 µL of the supernatant was transferred to a 96-well plate. Next, 75 µL of 0.8% (w/v) 2-thiobarbituric acid (TBA) was added. The plate was then sealed, heated at 95 °C for 15 min, cooled to 4 °C, and the absorbance at 530–620 nm was measured using a Wallac Victor 3 1420 Multilabel Counter (Perkin Elmer, Turku, Finland).
All the experiments were performed as four independent runs with different brain homogenate preparations and three repeated probes in each run. The average results for each run were normalized between the positive control with the vehicle and Fe^3+ and negative control with only the vehicle. They were presented as the IC50 ± SD values for the antioxidant activities of the compounds which were calculated using GraphPad Prism 7.00 software (San Diego, CA, USA).

A further experiment has as its target AChE (Homo sapiens, UniProt P22303). Description: Kinetic analysis of AChE inhibition, steady-state inhibition constants. It is filed as biochemical. Conditions: for AChE inhibition constant αKi (noncompetitive component) / Ki: Lineweaver–Burk analysis; for Ki: read-out: AChE inhibition constant Ki (competitive component); for Mechanism of AChE inhibition: Lineweaver–Burk double reciprocal plot. As to the method: . The results were analyzed using the Lineweaver–Burk double reciprocal plot, and the graphical analysis of the kinetic data is shown in Figure 1. […]. To elucidate the inhibition mechanisms for the active compounds, the residual activity of AChE was determined in the presence of three increasing concentrations of the test compounds and six decreasing concentrations of the substrates. The test compounds were preincubated with the enzyme at 25 °C for 5 min, followed by the addition of the substrates. Parallel controls were made for an assay of the rate of hydrolysis of the same concentrations of substrates in the solutions with no inhibitor. The kinetic parameters of substrate hydrolysis were determined. Measurements were performed with a FLUOStar Optima microplate reader. Each experiment was performed in triplicate.

The next experiment addresses T1, tubulin (Sus scrofa, UniProt P02550+P02554).
T1 construct: purchased Cytoskeleton, Inc. HTS-Tubulin polymerization assay kit
Nature of the experiment: Tubulin polymerization (microtubule assembly). Type of experiment: biochemical. Conditions: for Tubulin polymerization rate, % of control at 100 µM: read-out: Tubulin polymerization rate (dA355/dt), % Control; for Increase in the rate of tubulin polymerization: 100 µM. As to the method:
The assembly of tubulin into microtubules was carried out using pure tubulin from an HTS-Tubulin polymerization assay kit (Cytoskeleton, Inc., Denver, CO, USA). A standard polymerization reaction used 100 μL of 4 mg/mL tubulin in 80 mM PIPES (pH 6.9), 0.5 mM EGTA, 2 mM MgCl2, and 1 mM GTP. Polymerization was monitored by recording the change in absorbance on a Wallac Victor 3 1420 Multilabel Counter (Perkin Elmer, Turku, Finland) at λ = 3 55 nm. Electron microscopic monitoring was carried out with a Carl Zeiss Libra 120 electron microscope (Carl Zeiss Meditec AG, Jena, Germany) at 120 kV using negative contrasting.

Setting [3] is: 100 µM compound, means ± SEM (n = 6).

T1 sequence (P02550 whole entry): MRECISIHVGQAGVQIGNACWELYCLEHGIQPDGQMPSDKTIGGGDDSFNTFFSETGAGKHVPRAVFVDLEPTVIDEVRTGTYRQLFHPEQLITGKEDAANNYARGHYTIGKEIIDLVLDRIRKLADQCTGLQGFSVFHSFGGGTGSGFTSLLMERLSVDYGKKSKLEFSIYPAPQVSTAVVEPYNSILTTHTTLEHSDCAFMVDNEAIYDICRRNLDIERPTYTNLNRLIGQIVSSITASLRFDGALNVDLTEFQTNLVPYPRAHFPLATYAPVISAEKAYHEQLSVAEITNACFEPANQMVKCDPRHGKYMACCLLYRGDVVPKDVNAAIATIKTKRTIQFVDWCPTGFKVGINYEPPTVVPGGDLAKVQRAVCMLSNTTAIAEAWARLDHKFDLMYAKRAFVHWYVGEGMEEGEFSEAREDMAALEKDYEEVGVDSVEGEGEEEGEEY
T1 sequence (P02554 whole entry): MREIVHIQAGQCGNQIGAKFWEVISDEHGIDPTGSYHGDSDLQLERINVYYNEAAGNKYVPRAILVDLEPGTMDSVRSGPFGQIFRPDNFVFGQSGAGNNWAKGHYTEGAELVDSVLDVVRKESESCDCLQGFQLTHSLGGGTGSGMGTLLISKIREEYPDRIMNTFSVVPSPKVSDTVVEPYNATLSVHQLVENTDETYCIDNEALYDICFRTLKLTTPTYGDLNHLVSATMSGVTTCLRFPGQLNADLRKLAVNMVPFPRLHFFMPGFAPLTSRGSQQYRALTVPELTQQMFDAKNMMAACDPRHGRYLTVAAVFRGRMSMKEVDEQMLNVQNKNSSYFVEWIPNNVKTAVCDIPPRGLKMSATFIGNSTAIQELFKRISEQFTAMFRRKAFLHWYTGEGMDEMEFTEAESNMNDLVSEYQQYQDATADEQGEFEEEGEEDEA
Chain of AChE (P22303 32-588 isoform P22303-2): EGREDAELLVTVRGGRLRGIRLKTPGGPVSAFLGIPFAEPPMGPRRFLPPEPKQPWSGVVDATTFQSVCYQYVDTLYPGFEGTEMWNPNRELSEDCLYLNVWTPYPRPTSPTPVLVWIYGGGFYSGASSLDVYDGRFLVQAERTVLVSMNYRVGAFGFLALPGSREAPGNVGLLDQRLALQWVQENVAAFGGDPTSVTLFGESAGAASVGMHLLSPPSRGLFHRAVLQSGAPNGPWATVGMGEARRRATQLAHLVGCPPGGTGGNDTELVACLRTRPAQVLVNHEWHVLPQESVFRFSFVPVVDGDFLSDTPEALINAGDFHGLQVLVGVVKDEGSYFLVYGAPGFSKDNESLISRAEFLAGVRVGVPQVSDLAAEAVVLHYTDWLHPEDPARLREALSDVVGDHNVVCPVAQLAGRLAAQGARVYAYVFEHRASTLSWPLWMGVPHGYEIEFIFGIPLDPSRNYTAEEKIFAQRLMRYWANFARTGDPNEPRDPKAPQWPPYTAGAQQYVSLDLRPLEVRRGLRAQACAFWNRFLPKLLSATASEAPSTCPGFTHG

What is called IC50 is the concentration that inhibits the measured activity by half. For the compound `CN(C)c1ccc2c(c1)Sc1cc(N(C)C)ccc1N2C(=O)CCn1c2c(c3ccccc31)CCCCC2` [Compound 4j], in experiment [1], it took 16.3 ± 1.4 µM to reach half-maximal inhibition (IC50) and the “ABTS Scavenging Activity, TEAC Value” is 1.15 ± 0.09. Also, the IC50 in experiment [2] is 0.62 ± 0.37 µM.

As to `CN(C)c1ccc2c(c1)Sc1cc(N(C)C)ccc1N2C(=O)CCn1c2c(c3cc(F)ccc31)CCCC2` [Compound 4f], in experiment [1], the IC50 was found to be 27.2 ± 1.6 µM and the “ABTS Scavenging Activity, TEAC Value” worked out at 0.85 ± 0.04. Also, the IC50 in experiment [2] came to 0.6 ± 0.32 µM.

As for `Cc1ccc2c(c1)c1c(n2CCC(=O)N2c3ccc(N(C)C)cc3Sc3cc(N(C)C)ccc32)CCCCC1` [Compound 4k], the IC50 in experiment [1] turned out to be 15.4 ± 1.3 µM; in experiment [2], 0.82 ± 0.68 µM. Also, in experiment [1], the “ABTS Scavenging Activity, TEAC Value” is 1.20 ± 0.13.

A word on the Ki: it is the dissociation constant of the complex between target and ligand, obtained from inhibition or displacement. As to `CC1CCc2c(c3cc(OC(F)(F)F)ccc3n2CCC(=O)N2c3ccc(N(C)C)cc3Sc3cc(N(C)C)ccc32)C1` (stereo not drawn) [Compound 4i], on AChE, the “AChE inhibition constant αKi (noncompetitive component)” value (“AChE inhibition constant αKi” below) is listed as 3.19 ± 0.10 µM, the Ki worked out at 1.12 ± 0.05 µM and the “Mechanism of AChE inhibition” value is reported as “mixed type inhibition”. In experiment [1], half-maximal inhibition (IC50) was put at 17.2 ± 1.2 µM and the “ABTS Scavenging Activity, TEAC Value” turned out to be 1.14 ± 0.11. Besides, the IC50 in experiment [2] was 0.58 ± 0.26 µM. In addition, on tubulin, the “Structure of microtubules formed (electron microscopy)” value (from here on “Structure of microtubules formed”) is given as “straight, long microtubules with a normal structure”. The Tubulin polymerization rate, % of control at 100 µM at tubulin (setting [3]) came to 207 ± 5%.

As for `CN(C)c1ccc2c(c1)Sc1cc(N(C)C)ccc1N2C(=O)CCn1c2c(c3cc(OC(F)(F)F)ccc31)CCCC2` [Compound 4h], in experiment [1], the half-inhibitory concentration (IC50) was 17.8 ± 1.4 µM and the “ABTS Scavenging Activity, TEAC Value” was found to be 1.10 ± 0.10. The IC50 in experiment [2] is 0.46 ± 0.32 µM. Further, the “Structure of microtubules formed” value on tubulin is reported as “straight, long microtubules with a normal structure”. Also, at tubulin (setting [3]), the Tubulin polymerization rate, % of control at 100 µM was 179 ± 27%.

Take `CN(C)c1ccc2c(c1)Sc1cc(N(C)C)ccc1N2C(=O)CCn1c2c(c3ccccc31)CCC2` [Compound 4a]: in experiment [1], the IC50 came to 21 ± 1.4 µM and the “ABTS Scavenging Activity, TEAC Value” is listed as 0.99 ± 0.08. Further, the IC50 in experiment [2] came out at 1.24 ± 0.72 µM.

For the compound `CN(C)c1ccc2nc3ccc(=[N+](C)C)cc-3sc2c1` [MB, Methylene blue, reference compound], in experiment [1], the “ABTS Scavenging Activity, TEAC Value” is “not detectable”. Besides, in experiment [2], the “Pro-oxidant activity in rat brain homogenate” value is “no pro-oxidant activity” and the 50% inhibitory concentration (IC50) stood at 1.9 ± 0.5 µM. Besides, at tubulin, the “Structure of microtubules formed” value is on record as “straight, long microtubules with a normal structure” and the “Increase in the rate of tubulin polymerization” value was “more than 1.5 fold”. Also, the Tubulin polymerization rate, % of control at 100 µM at tubulin (setting [3]) is 168 ± 17%.

Take `CN(C)c1ccc2c(c1)Sc1cc(N(C)C)ccc1N2C(=O)CCn1c2c(c3ccccc31)CCCCCC2` [Compound 4m]: at AChE, the “AChE inhibition constant αKi” value is recorded as 4.03 ± 0.15 µM, the Ki worked out at 1.06 ± 0.04 µM and the “Mechanism of AChE inhibition” value is listed as “mixed type inhibition”. In addition, in experiment [1], the IC50 came out at 16.7 ± 1.6 µM and the “ABTS Scavenging Activity, TEAC Value” stood at 1.11 ± 0.07. For the same compound, the IC50 in experiment [2] was 1.52 ± 0.79 µM.

Take `COc1ccc2c(c1)c1c(n2CCC(=O)N2c3ccc(N(C)C)cc3Sc3cc(N(C)C)ccc32)CCC(C)C1` (stereo not drawn) [Compound 4e]: the IC50 in experiment [1] was determined as 13.7 ± 0.9 µM; in experiment [2], 0.5 ± 0.36 µM. In addition, the “ABTS Scavenging Activity, TEAC Value” in experiment [1] was 1.46 and 1.46 ± 0.11.

Take `CN(C)c1ccc2c(c1)Sc1cc(N(C)C)ccc1N2C(=O)CCn1c2c(c3ccccc31)CCCC2` [Compound 4b]: the IC50 in experiment [1] is 24.3 ± 1.5 µM; in experiment [2] it was 1.12 ± 0.63 µM. Also, the “ABTS Scavenging Activity, TEAC Value” in experiment [1] worked out at 0.90 ± 0.04.

On to `Cc1ccc2c(c1)c1c(n2CCC(=O)N2c3ccc(N(C)C)cc3Sc3cc(N(C)C)ccc32)CCCC1` [Compound 4c], for which, at AChE, the “AChE inhibition constant αKi” value stood at 5.83 ± 0.31 µM, the Ki amounted to 1.98 ± 0.17 µM and the “Mechanism of AChE inhibition” value is recorded as “mixed type inhibition”. Further, in experiment [1], the IC50 stood at 17.6 ± 1.8 µM and the “ABTS Scavenging Activity, TEAC Value” worked out at 1.13 ± 0.09. For the same compound, the IC50 in experiment [2] worked out at 0.78 ± 0.35 µM.

On to `Cc1ccc2c(c1)c1c(n2CCC(=O)N2c3ccc(N(C)C)cc3Sc3cc(N(C)C)ccc32)CCCCCC1` [Compound 4n], for which the IC50 in experiment [1] stood at 14.9 ± 1.2 µM; in experiment [2] it was 0.93 ± 0.68 µM. Also, the “ABTS Scavenging Activity, TEAC Value” in experiment [1] amounted to 1.20 ± 0.14.

With `COc1ccc2c(c1)c1c(n2CCC(=O)N2c3ccc(N(C)C)cc3Sc3cc(N(C)C)ccc32)CCCC1` [Compound 4d], in experiment [1], half-maximal inhibition (IC50) was put at 39.3 ± 1.5 µM and the “ABTS Scavenging Activity, TEAC Value” was 0.75 ± 0.05. For the same compound, the IC50 in experiment [2] was 1.12 ± 0.62 µM.

As for `CN(C)c1ccc2c(c1)Sc1cc(N(C)C)ccc1N2` [MBH2, reference compound], the “ABTS Scavenging Activity, TEAC Value” in experiment [1] is on record as “not detectable”. In experiment [2], the “Pro-oxidant activity in rat brain homogenate” value was “no pro-oxidant activity” and the IC50 came out at 0.53 ± 0.23 µM. Further, the “Increase in the rate of tubulin polymerization” value at tubulin is “more than 1.5 fold”. Further, the “Tubulin polymerization rate (dA355/dt), % Control” value on tubulin (setting [3]) came out at 178 ± 11 % Control.
